From patent US8183239B2, “Substituted piperazines and piperidines as modulators of the neuropeptide Y2 receptor” (Janssen Pharmaceutica NV, priority 2005, dated 2012) come the findings set out here.

Bounds are passed on as bounds.

This assay concerns the target T1, Y2 receptors (Homo sapiens, UniProt P49146).
T1 construct: endogenous in cells; host or cells: KAN-Ts cells (membranes)
T1 sequence (P49146 1-381): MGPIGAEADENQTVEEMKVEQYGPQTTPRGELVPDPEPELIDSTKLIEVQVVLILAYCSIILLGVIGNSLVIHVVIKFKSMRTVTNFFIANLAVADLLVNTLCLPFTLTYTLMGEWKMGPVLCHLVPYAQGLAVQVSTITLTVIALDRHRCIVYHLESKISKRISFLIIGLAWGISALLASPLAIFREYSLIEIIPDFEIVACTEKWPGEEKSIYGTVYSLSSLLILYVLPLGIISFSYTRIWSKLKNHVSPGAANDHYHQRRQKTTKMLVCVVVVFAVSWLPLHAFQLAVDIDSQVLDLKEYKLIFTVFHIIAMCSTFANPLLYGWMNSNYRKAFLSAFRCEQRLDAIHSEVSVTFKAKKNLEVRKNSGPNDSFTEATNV
Put plainly: Radioligand binding assay ([125I]PYY, KAN-Ts cell membranes). The following applies: Table 2, [125I]PYY 80 pM, average of results, read-out: IC50. The essentials:
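IC50 values are means of three to eight experiments run in duplicate, fitted sigmoidally against specific binding (defined by […]). Competition used 80 pM [^125I]PYY for 1 h at room temperature on KAN-Ts membranes carrying native Y2, with filtration and scintillation counting.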
For the molecule `CCC(CC)C(=O)Nc1ccc(N2CCC(C(C(=O)N3CC(F)(F)C3)c3ccccc3)CC2)c(F)c1` (stereo not drawn) [Example 207, N-(4-{4-[2-(3,3-Difluoro-azetidin-1-yl)-2-oxo-1-phenyl-ethyl]-piperidin-1-yl}-3-fluoro-phenyl)-2-ethyl-butyramide], the IC50 was found to be 70 nM.
As for `CCC(CC)C(=O)Nc1ccc(N2CCC(C(C(=O)N3CCC(F)(F)CC3)c3ccccc3)CC2)c(F)c1` (stereo not drawn) [Example 208, N-(4-{4-[2-(4,4-Difluoro-piperidin-1-yl)-2-oxo-1-phenyl-ethyl]-piperidin-1-yl}-3-fluoro-phenyl)-2-ethyl-butyramide], the 50% inhibitory concentration (IC50) amounted to 20 nM.
As to `CCC(CC)C(=O)Nc1ccc(N2CCC(C(C(=O)N3CCC3)c3ccccc3)CC2)c(F)c1` (stereo not drawn) [Example 209, N-{4-[4-(2-Azetidin-1-yl-2-oxo-1-phenyl-ethyl)-piperidin-1-yl]-3-fluoro-phenyl}-2-ethyl-butyramide], the IC50 amounted to 100 nM.
With `CCC(CC)C(=O)Nc1ccc(N2CCC(C(C(=O)N3CCC(F)(F)C3)c3ccccc3)CC2)c(F)c1` (stereo not drawn) [Example 210, N-(4-{4-[2-(3,3-Difluoro-pyrrolidin-1-yl)-2-oxo-1-phenyl-ethyl]-piperidin-1-yl}-3-fluoro-phenyl)-2-ethyl-butyramide] the figure was 25 nM.
`CCC(CC)C(=O)Nc1ccc(N2CCC(C(C(=O)N3CCCC3)c3ccccc3)CC2)c(F)c1` (stereo not drawn) [Example 211, 2-Ethyl-N-{3-fluoro-4-[4-(2-oxo-1-phenyl-2-pyrrolidin-1-yl-ethyl)-piperidin-1-yl]-phenyl}-butyramide]: the IC50 is 26 nM.
In the case of `CCC(CC)C(=O)Nc1ccc(N2CCC(C(C(=O)NC3CC3)c3ccccc3)CC2)c(F)c1` (stereo not drawn) [Example 212, N-{4-[4-(Cyclopropylcarbamoyl-phenyl-methyl)-piperidin-1-yl]-3-fluoro-phenyl}-2-ethyl-butyramide], the IC50 worked out at 55 nM.
With `CCC(CC)C(=O)Nc1ccc(N2CCC(C(C(=O)Nc3nc(C)cs3)c3ccccc3)CC2)c(F)c1` (stereo not drawn) [Example 213, 2-Ethyl-N-(3-fluoro-4-{4-[(4-methyl-thiazol-2-ylcarbamoyl)-phenyl-methyl]-piperidin-1-yl}-phenyl)-butyramide] the figure was 30 nM; with `CCC(CC)C(=O)Nc1ccc(N2CCC(C(C(=O)OC)c3ccccc3)CC2)c(F)c1` (stereo not drawn) [Example 214, {1-[4-(2-Ethyl-butyrylamino)-2-fluoro-phenyl]-piperidin-4-yl}-phenyl-acetic acid methyl ester], 40 nM; with `CCC(CC)C(=O)Nc1ccc(N2CCC(C(C(=O)N3CCCCC3)c3ccccc3)CC2)c(F)c1` (stereo not drawn) [Example 215, 2-Ethyl-N-{3-fluoro-4-[4-(2-oxo-1-phenyl-2-piperidin-1-yl-ethyl)-piperidin-1-yl]-phenyl}-butyramide], 100 nM.
`CCC(CC)C(=O)Nc1ccc(N2CCC(C(C(=O)N3CCN(C)CC3)c3ccccc3)CC2)c(F)c1` (stereo not drawn) [Example 216, 2-Ethyl-N-(3-fluoro-4-{4-[2-(4-methyl-piperazin-1-yl)-2-oxo-1-phenyl-ethyl]-piperidin-1-yl}-phenyl)-butyramide]: the IC50 is not below 10000 nM.
In the case of `CCC(CC)C(=O)Nc1ccc(N2CCC(C(C(=O)N(CC)CC)c3ccccc3)CC2)c(C#N)c1` (stereo not drawn) [Example 217, N-{3-Cyano-4-[4-(diethylcarbamoyl-phenyl-methyl)-piperidin-1-yl]-phenyl}-2-ethyl-butyramide], the IC50 is 10 nM.
With `CCC(CC)C(=O)Nc1ccc(N2CCC(C(C(=O)N(CC)CC)c3ccccc3)CC2)c(Br)c1` (stereo not drawn) [Example 219, N-{3-Bromo-4-[4-(diethylcarbamoyl-phenyl-methyl)-piperidin-1-yl]-phenyl}-2-ethyl-butyramide] the figure was 37 nM; with `CCN(CC)C(=O)C(c1ccccc1)C1CCN(c2ccc(NC(=O)C3CCCC3)cc2F)CC1` (stereo not drawn) [Example 220, Cyclopentanecarboxylic acid {4-[4-(diethylcarbamoyl-phenyl-methyl)-piperidin-1-yl]-3-fluoro-phenyl}-amide], 40 nM.
In the case of `CCN(CC)C(=O)C(c1ccccc1)N1CCN(c2ccc(NC(=O)C3CCCC3)cc2C#N)CC1` (stereo not drawn) [Example 221, Cyclopentanecarboxylic acid {3-cyano-4-[4-(diethylcarbamoyl-phenyl-methyl)-piperazin-1-yl]-phenyl}-amide], the IC50 was 48 nM.
For the molecule `CCN(CC)C(=O)C(c1ccccc1)C1CCN(c2ccc(NC(=O)C3CCC3)cc2F)CC1` (stereo not drawn) [Example 222, Cyclobutanecarboxylic acid {4-[4-(diethylcarbamoyl-phenyl-methyl)-piperidin-1-yl]-3-fluoro-phenyl}-amide], the IC50 amounted to 63 nM.
As for `CCC(CC)C(=O)Nc1ccc(N2CCN(C(C(=O)N(CC)CC)c3ccccc3)CC2)c(Br)c1` (stereo not drawn) [Example 223, N-{3-Bromo-4-[4-(diethylcarbamoyl-phenyl-methyl)-piperazin-1-yl]-phenyl}-2-ethyl-butyramide], the IC50 is 80 nM.
For `CCN(CC)C(=O)C(c1ccccc1)N1CCN(c2ccc(NC(=O)C3CCCC3)c(F)c2C#N)CC1` (stereo not drawn) [Example 224, Cyclopentanecarboxylic acid {3-cyano-4-[4-(diethylcarbamoyl-phenyl-methyl)-piperazin-1-yl]-2-fluoro-phenyl}-amide], the IC50 worked out at 92 nM.
Regarding `CCC(CC)C(=O)Nc1cc(F)c(N2CCN(C(C(=O)N(CC)CC)c3ccccc3)CC2)cc1F` (stereo not drawn) [Example 225, N-{4-[4-(Diethylcarbamoyl-phenyl-methyl)-piperazin-1-yl]-2,5-difluoro-phenyl}-2-ethyl-butyramide], the IC50 is 107 nM.
On to `CCC(CC)C(=O)Nc1cc(F)c(N2CCN(C(C(=O)N(CC)CC)c3ccccc3)CC2)c(F)c1` (stereo not drawn) [Example 226, N-{4-[4-(Diethylcarbamoyl-phenyl-methyl)-piperazin-1-yl]-3,5-difluoro-phenyl}-2-ethyl-butyramide], for which the 50% inhibitory concentration (IC50) came out at 95 nM.
In the case of `CCC(CC)C(=O)Nc1ccc(N2CCN(C(C(=O)N(CC)CC)c3ccccc3)CC2)c(C#N)c1F` (stereo not drawn) [Example 227, N-{3-Cyano-4-[4-(diethylcarbamoyl-phenyl-methyl)-piperazin-1-yl]-2-fluoro-phenyl}-2-ethyl-butyramide], the half-maximal inhibitory concentration (IC50) amounted to 116 nM.
Take `CCN(CC)C(=O)C(c1ccccc1)N1CCN(c2ccc(NC(=O)C3CC4CCC3C4)cc2F)CC1` (stereo not drawn) [Example 228, Bicyclo[2.2.1]heptane-2-carboxylic acid {4-[4-(diethylcarbamoyl-phenyl-methyl)-piperazin-1-yl]-3-fluoro-phenyl}-amide]: the IC50 amounted to 120 nM.
For the molecule `CCN(CC)C(=O)C(c1ccccc1)C1CCN(c2ccc(NC(=O)C3CC3)cc2F)CC1` (stereo not drawn) [Example 229, Cyclopropanecarboxylic acid {4-[4-(diethylcarbamoyl-phenyl-methyl)-piperidin-1-yl]-3-fluoro-phenyl}-amide], the IC50 came to 120 nM.
`CCN(CC)C(=O)C(c1ccccc1)N1CCN(c2c(F)cc(NC(=O)C3CCCC3)cc2F)CC1` (stereo not drawn) [Example 230, Cyclopentanecarboxylic acid {4-[4-(diethylcarbamoyl-phenyl-methyl)-piperazin-1-yl]-3,5-difluoro-phenyl}-amide]: the IC50 was found to be 150 nM.
As to `CCN(CC)C(=O)C(c1ccccc1)N1CCN(c2ccc(NC(=O)C3CCCC3)cc2C)CC1` (stereo not drawn) [Example 231, Cyclopentanecarboxylic acid {4-[4-(diethylcarbamoyl-phenyl-methyl)-piperazin-1-yl]-3-methyl-phenyl}-amide], the IC50 is 200 nM.
In the case of `CCC(CC)C(=O)Nc1ccc(N2CCN(C(C(=O)N(CC)CC)c3ccccc3)CC2)c(C)c1` (stereo not drawn) [Example 232, N-{4-[4-(Diethylcarbamoyl-phenyl-methyl)-piperazin-1-yl]-3-methyl-phenyl}-2-ethyl-butyramide], the IC50 was determined as 210 nM.
With `CCC(CC)C(=O)Nc1ccc(N2CCN(C(C(=O)N(CC)CC)c3ccccc3)CC2)c(F)c1F` (stereo not drawn) [Example 233, N-{4-[4-(Diethylcarbamoyl-phenyl-methyl)-piperazin-1-yl]-2,3-difluoro-phenyl}-2-ethyl-butyramide] the figure was 270 nM; with `CCC(CC)C(=O)Nc1ccc(N2CCC(C(C#N)c3ccccc3)CC2)c(F)c1` (stereo not drawn) [Example 234, N-{4-[4-(Cyano-phenyl-methyl)-piperidin-1-yl]-3-fluoro-phenyl}-2-ethyl-butyramide], 280 nM.
On to `CCNC(=O)C(c1ccccc1)N1CCN(c2c(F)cc(NC(=O)[C@@H]3CCOC3)cc2F)CC1` (stereo partly drawn) [Example 236, (R)-Tetrahydro-furan-3-carboxylic acid {4-[4-(ethylcarbamoyl-phenyl-methyl)-piperazin-1-yl]-3,5-difluoro-phenyl}-amide], for which the IC50 worked out at 900 nM.
For the molecule `CCC(CC)C(=O)Nc1ccc(N2CCN(C(C(=O)N(CC)CC)c3ccccc3)CC2)cc1C#N` (stereo not drawn) [Example 237, N-{2-Cyano-4-[4-(diethylcarbamoyl-phenyl-methyl)-piperazin-1-yl]-phenyl}-2-ethyl-butyramide], the IC50 was 1100 nM.
In the case of `CCN(CC)C(=O)C(c1ccccc1)N1CCN(c2ccc(NC(=O)C3CCCC3)cc2OC)CC1` (stereo not drawn) [Example 238, Cyclopentanecarboxylic acid {4-[4-(diethylcarbamoyl-phenyl-methyl)-piperazin-1-yl]-3-methoxy-phenyl}-amide], the half-maximal inhibitory concentration (IC50) came out at 1300 nM.

Broadly, the IC50 is the midpoint of a concentration-inhibition curve.
